In US9745291B2, “PRMT5 inhibitors containing a dihydro- or tetrahydroisoquinoline and uses thereof” (Epizyme, Inc., priority 2012, dated 2017):
pIC50: −log10 of the molar value.

biological target: PRMT5/MEP50 (Homo sapiens (Human), UniProt O14744); assay: PRMT5 Biochemical Assay (PRMT5/MEP50 enzyme assay on peptide substrate, 3H-SAM Flashplate); conditions: PRMT5 biochemical assay; read-out: Biochemical IC50
Excerpt: S-adenosylmethionine (SAM), S-adenosylhomocysteine (SAH), bicine, KCl, Tween20, dimethylsulfoxide (DMSO), bovine skin gelatin (BSG), and Tris(2-carboxyethyl)phosphine hydrochloride solution (TCEP) were purchased from Sigma-Aldrich at the highest level of purity possible. ^3H-SAM was purchase from American Radiolabeled Chemicals with a specific activity of 80 Ci/mmol. 384-well streptavidin Flashplates were purchased from PerkinElmer.
Peptide representative of human histone H4 residues 1-15 was synthesized with a C-terminal linker-affinity tag motif and a C-terminal amide cap by 21st Century Biochemicals. […] The sequence was Ac-[…][K-Biot]-amide (SEQ ID NO.:3).
Full-length human MEP50 (NM_024102) clone was amplified from a human testis cDNA library incorporating a 5′ sequence encoding a 6-histidine tag (MHHHHHH)(SEQ ID NO.:5) fused directly to Arg 2 of MEP50. The amplified genes were sublconed into pENTR/D/TEV (Life Technologies) and subsequently transferred by Gateway™ attL×attR recombination to pDEST8 baculvirus expression vector (Life Technologies).
Recombinant baculovirus and Baculovirus-Infected Insect Cells (BIIC) were generated according to Bac-to-Bac kit instructions (Life Technologies) and Wasilko, 2006, respectively. Protein over-expression was accomplished by infecting exponentially growing Spodoptera frugiperda (SF9) cell culture at 1.2×10^6 cell/ml with a 5000 fold dilution of BIIC stock. Infections were carried out at 27° C. for 72 hours, harvested by centrifugation, and stored at −80° C. for purification.
Flag-PRMT5/6His-MeP50 was eluted with 300 mM Imidazole in the same buffer. […] Reference: Wasilko, D. J. and S. E. Lee: “TIPS: titerless infected-cells preservation and scale-up” Bioprocess J., 5 (2006), pp. 29-32.
General Procedure for PRMT5/MEP50 Enzyme Assays on Peptide Substrates.
The assays were all performed in a buffer consisting of 20 mM Bicine (pH=7.6), 1 mM TCEP, 0.005% BSG, and 0.002% Tween20, prepared on the day of use. Compounds in 100% DMSO (1 ul) were spotted into a polypropylene 384-well V-bottom plates (Greiner) using a Platemate Plus outfitted with a 384-channel head (Thermo Scientific). DMSO (1 ul) was added to Columns 11, 12, 23, 24, rows A-H for the maximum signal control and 1 ul of SAH, a known product and inhibitor of PRMT5/MEP50, was added to columns 11, 12, 23, 24, rows I-P for the minimum signal control. A cocktail (40 ul) containing the PRMT5/MEP50 enzyme and the peptide was added by Multidrop Combi (Thermo-Fisher). The compounds were allowed to incubate with PRMT5/MEP50 for 30 min at 25 degrees Celsius, then a cocktail (10 ul) containing ^3H-SAM was added to initiate the reaction (final volume=51 ul).

Chain of PRMT5/MEP50 (O14744 other isoform, or with tags, fused parts or gaps): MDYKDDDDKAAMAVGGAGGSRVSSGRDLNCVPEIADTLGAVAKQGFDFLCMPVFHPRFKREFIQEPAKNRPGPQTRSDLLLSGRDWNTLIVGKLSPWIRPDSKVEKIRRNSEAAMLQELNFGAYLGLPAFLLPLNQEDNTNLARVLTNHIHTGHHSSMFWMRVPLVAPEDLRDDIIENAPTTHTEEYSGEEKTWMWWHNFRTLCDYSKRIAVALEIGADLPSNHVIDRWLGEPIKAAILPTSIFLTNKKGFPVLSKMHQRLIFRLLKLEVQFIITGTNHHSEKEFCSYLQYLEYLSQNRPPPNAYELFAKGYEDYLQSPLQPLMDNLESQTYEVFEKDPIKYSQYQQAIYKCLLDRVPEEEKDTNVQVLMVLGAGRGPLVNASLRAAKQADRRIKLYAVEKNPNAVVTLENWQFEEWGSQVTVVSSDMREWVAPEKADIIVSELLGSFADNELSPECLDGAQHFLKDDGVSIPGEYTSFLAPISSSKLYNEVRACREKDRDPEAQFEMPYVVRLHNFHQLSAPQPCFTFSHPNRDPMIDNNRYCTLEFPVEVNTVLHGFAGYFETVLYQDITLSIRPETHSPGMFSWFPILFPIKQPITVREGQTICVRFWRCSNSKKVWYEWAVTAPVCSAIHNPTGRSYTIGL
Chain of PRMT5/MEP50 (Q9BQA1 other isoform, or with tags, fused parts or gaps partner): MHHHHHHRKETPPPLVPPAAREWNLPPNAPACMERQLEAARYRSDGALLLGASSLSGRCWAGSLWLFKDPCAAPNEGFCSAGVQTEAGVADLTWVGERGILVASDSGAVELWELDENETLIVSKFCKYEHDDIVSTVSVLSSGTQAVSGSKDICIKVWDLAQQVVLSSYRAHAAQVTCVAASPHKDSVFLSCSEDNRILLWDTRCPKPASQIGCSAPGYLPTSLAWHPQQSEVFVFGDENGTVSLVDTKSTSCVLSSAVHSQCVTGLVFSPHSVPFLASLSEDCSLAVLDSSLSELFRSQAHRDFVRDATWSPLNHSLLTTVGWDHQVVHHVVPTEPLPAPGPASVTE

Row | Structure (SMILES) | pIC50
1 | O=C(COc1cccc2c1CCCN2Cc1ccccc1)NCC(O)CN1CCc2ccccc2C1 (centres unmarked) [Compound 4] | > 7.00
2 | CC(Oc1ccccc1)C(=O)NCC(O)CN1CCc2ccccc2C1 (centres unmarked) [Compound 19, N-(3-(3,4-dihydroisoquinolin-2(1H)-yl)-2-hydroxypropyl)-2-phenoxypropanamide] | > 7.00
3 | COc1cccc(OCC(=O)NCC(O)CN2CCc3ccccc3C2)c1 (centres unmarked) [Compound 20, N-(3-(3,4-dihydroisoquinolin-2(1H)-yl)-2-hydroxypropyl)-2-(3-methoxyphenoxy)acetamide] | > 7.00
4 | COc1ccccc1OCC(=O)NCC(O)CN1CCc2ccccc2C1 (centres unmarked) [Compound 22] | > 7.00
5 | Cn1ncc2ccc(OCC(=O)NCC(O)CN3CCc4ccccc4C3)cc21 (centres unmarked) [Compound 23, N-(3-(3,4-dihydroisoquinolin-2(1H)-yl)-2-hydroxypropyl)-2-((1-methyl-1H-indazol-6-yl)oxy)acetamide] | > 7.00
6 | Cc1cccc(OCC(=O)NCC(O)CN2CCc3ccccc3C2)c1 (centres unmarked) [Compound 26] | > 7.00
7 | CN(C)c1cccc(OCC(=O)NCC(O)CN2CCc3ccccc3C2)c1 (centres unmarked) [Compound 27] | > 7.00
8 | CS(=O)(=O)Nc1cccc(OCC(=O)NCC(O)CN2CCc3ccccc3C2)c1 (centres unmarked) [Compound 28, N-(3-(3,4-dihydroisoquinolin-2(1H)-yl)-2-hydroxypropyl)-2-(3-(methylsulfonamido)phenoxy)acetamide] | > 7.00
9 | CS(=O)(=O)c1ccccc1OCC(=O)NCC(O)CN1CCc2ccccc2C1 (centres unmarked) [Compound 37, N-(3-(3,4-dihydroisoquinolin-2(1H)-yl)-2-hydroxypropyl)-2-(2-(methylsulfonyl)phenoxy)acetamide] | > 7.00
10 | CN(C)c1ccccc1OCC(=O)NCC(O)CN1CCc2ccccc2C1 (centres unmarked) [Compound 38] | > 7.00
11 | CC(Oc1cccc2cccnc12)C(=O)NCC(O)CN1CCc2ccccc2C1 (centres unmarked) [Compound 39, N-(3-(3,4-dihydroisoquinolin-2(1H)-yl)-2-hydroxypropyl)-2-(quinolin-8-yloxy)propanamide] | > 7.00
12 | O=C(COc1ccccc1C1CCCCC1)NCC(O)CN1CCc2ccccc2C1 (centres unmarked) [Compound 40] | > 7.00
13 | CC(C)(Oc1cccc2cccnc12)C(=O)NCC(O)CN1CCc2ccccc2C1 (centres unmarked) [Compound 43, N-(3-(3,4-dihydroisoquinolin-2(1H)-yl)-2-hydroxypropyl)-2-methyl-2-(quinolin-8-yloxy)propanamide] | > 7.00
14 | CS(=O)(=O)c1cccc(OCC(=O)NCC(O)CN2CCc3ccccc3C2)c1 (centres unmarked) [Compound 47] | > 7.00
15 | O=C(COc1cccc2ccc(N3CCOCC3)nc12)NCC(O)CN1CCc2ccccc2C1 (centres unmarked) [Compound 48, N-(3-(3,4-dihydroisoquinolin-2(1H)-yl)-2-hydroxypropyl)-2-((2-morpholinoquinolin-8-yl)oxy)acetamide] | > 7.00
16 | O=C(COc1ccccc1N1CCOCC1)NCC(O)CN1CCc2ccccc2C1 (centres unmarked) [Compound 49, N-(3-(3,4-dihydroisoquinolin-2(1H)-yl)-2-hydroxypropyl)-2-(2-morpholinophenoxy)acetamide] | > 7.00
17 | O=C(COc1ccccc1-c1cc[nH]n1)NCC(O)CN1CCc2ccccc2C1 (centres unmarked) [Compound 50, 2-(2-(1H-pyrazol-3-yl)phenoxy)-N-(3-(3,4-dihydroisoquinolin-2(1H)-yl)-2-hydroxypropyl)acetamide] | > 7.00
18 | CS(=O)(=O)Nc1ccccc1OCC(=O)NCC(O)CN1CCc2ccccc2C1 (centres unmarked) [Compound 53] | > 7.00
19 | O=C(COc1cccc2c1CCCC2)NCC(O)CN1CCc2ccccc2C1 (centres unmarked) [Compound 64] | > 7.00
20 | NS(=O)(=O)c1ccccc1OCC(=O)NCC(O)CN1CCc2ccccc2C1 (centres unmarked) [Compound 65] | > 7.00
21 | O=C(COc1cccc2ccccc12)NCC(O)CN1CCc2ccccc2C1 (centres unmarked) [Compound 66, N-(3-(3,4-dihydroisoquinolin-2(1H)-yl)-2-hydroxypropyl)-2-(naphthalen-1-yloxy)acetamide] | > 7.00
22 | O=C(COc1ccccc1-c1cc[nH]n1)NC[C@@H](O)CN1CCc2ccccc2C1 [Compound 67] | > 7.00
23 | O=C(COc1ccccc1-c1cc[nH]n1)NC[C@H](O)CN1CCc2ccccc2C1 [Compound 68] | > 7.00
24 | C[C@@H](Oc1cccc2cccnc12)C(=O)NC[C@H](O)CN1CCc2ccccc2C1 [Compound 73, (R)—N—((S)-3-(3,4-dihydroisoquinolin-2(1H)-yl)-2-hydroxypropyl)-2-(quinolin-8-yloxy)propanamide] | > 7.00
25 | C[C@@H](Oc1cccc2cccnc12)C(=O)NC[C@@H](O)CN1CCc2ccccc2C1 [Compound 74] | > 7.00

Row | Structure (SMILES) | pIC50
26 | O=C(COc1cccc(CN2CCOCC2)c1)NCC(O)CN1CCc2ccccc2C1 (centres unmarked) [Compound 75] | > 7.00
27 | C[C@H](Oc1cccc2cccnc12)C(=O)NC[C@H](O)CN1CCc2ccccc2C1 [Compound 76, (S)—N—((S)-3-(3,4-dihydroisoquinolin-2(1H)-yl)-2-hydroxypropyl)-2-(quinolin-8-yloxy)propanamide] | > 7.00
28 | O=C(COc1ccccc1N1CCOCC1)NC[C@H](O)CN1CCc2ccccc2C1 [Compound 77] | > 7.00
29 | CN1C(=O)COc2cccc(OCC(=O)NCC(O)CN3CCc4ccccc4C3)c21 (centres unmarked) [Compound 80, N-(3-(3,4-Dihydroisoquinolin-2(1H)-yl)-2-hydroxypropyl)-2-(4-methyl-3-oxo-3,4-dihydro-2H-benzo[b][1,4]oxazin-5-yloxy)acetamide] | > 7.00
30 | CN1CCOc2cccc(OCC(=O)NCC(O)CN3CCc4ccccc4C3)c21 (centres unmarked) [Compound 81] | > 7.00
31 | Cn1ncc2c(OCC(=O)NCC(O)CN3CCc4ccccc4C3)cccc21 (centres unmarked) [Compound 82] | > 7.00
32 | CN1CCN(c2ccccc2OCC(=O)NC[C@H](O)CN2CCc3ccccc3C2)CC1 [Compound 84] | > 7.00
33 | O=C(COc1ccccc1OCCN1CCOCC1)NC[C@H](O)CN1CCc2ccccc2C1 [Compound 86] | > 7.00
34 | CN(C)CCOc1ccccc1OCC(=O)NC[C@H](O)CN1CCc2ccccc2C1 [Compound 88] | > 7.00
35 | CC(=O)N1CCN(c2ccccc2OCC(=O)NCC(O)CN2CCc3ccccc3C2)CC1 (centres unmarked) [Compound 90] | > 7.00
36 | O=C(COc1cccc2c1CCNC2)NCC(O)CN1CCc2ccccc2C1 (centres unmarked) [Compound 91] | > 7.00
37 | O=C(COc1cccc2nccnc12)NCC(O)CN1CCc2ccccc2C1 (centres unmarked) [Compound 92] | > 7.00
38 | O=C(COc1cccc(NC2CCOCC2)c1)NCC(O)CN1CCc2ccccc2C1 (centres unmarked) [Compound 93] | > 7.00
39 | O=C(COc1c(CN2CCOCC2)ccc2cccnc12)NC[C@H](O)CN1CCc2ccccc2C1 [Compound 94] | > 7.00
40 | O=C(COc1ccc2c(cnn2C2CCNC2)c1)NCC(O)CN1CCc2ccccc2C1 (centres unmarked) [Compound 95] | > 7.00
41 | CN1CCC(n2ncc3cc(OCC(=O)NCC(O)CN4CCc5ccccc5C4)ccc32)C1 (centres unmarked) [Compound 96] | > 7.00
42 | COc1ccc2cccc(OCC(=O)NC[C@@H](O)CN3CCc4ccccc4C3)c2n1 [Compound 98, (R)—N-(3-(3,4-dihydroisoquinolin-2(1H)-yl)-2-hydroxypropyl)-2-((2-methoxyquinolin-8-yl)oxy)acetamide] | > 7.00
43 | CN1CCc2c(cccc2OCC(=O)NCC(O)CN2CCc3ccccc3C2)C1 (centres unmarked) [Compound 99] | > 7.00
44 | O=C(COc1cccc2c1OCCO2)NCC(O)CN1CCc2ccccc2C1 (centres unmarked) [Compound 100] | > 7.00
45 | CC(=O)N1CCc2c(cccc2OCC(=O)NCC(O)CN2CCc3ccccc3C2)C1 (centres unmarked) [Compound 101] | > 7.00
46 | CS(=O)(=O)N1CCc2c(cccc2OCC(=O)NCC(O)CN2CCc3ccccc3C2)C1 (centres unmarked) [Compound 102, N-(3-(3,4-dihydroisoquinolin-2(1H)-yl)-2-hydroxypropyl)-2-((2-(methylsulfonyl)-1,2,3,4-tetrahydroisoquinolin-5-yl)oxy)acetamide] | > 7.00
47 | O=C(COc1ccccc1C1CCNCC1)NCC(O)CN1CCc2ccccc2C1 (centres unmarked) [Compound 103] | > 7.00
48 | CN(C)c1ccc2cccc(OCC(=O)NC[C@@H](O)CN3CCc4ccccc4C3)c2n1 [Compound 105] | > 7.00
49 | O=C(COc1ccccc1S(=O)(=O)N1CCNCC1)NCC(O)CN1CCc2ccccc2C1 (centres unmarked) [Compound 107] | > 7.00
50 | CN1CCN(S(=O)(=O)c2ccccc2OCC(=O)NCC(O)CN2CCc3ccccc3C2)CC1 (centres unmarked) [Compound 108] | > 7.00
